Reference: US10787462B2, “Heterocyclic compound” (TAKEDA PHARMACEUTICAL COMPANY LIMITED, priority 2015, dated 2020)

biological target: T1, human RIPK1 (1-375) (Homo sapiens, UniProt Q13546); assay: Human RIPK1 enzyme inhibitory effect (ADP-Glo Kinase Assay); format: biochemical; conditions: 10 μM test compound; well without enzyme = 100% inhibition
T1 construct: human RIPK1 (1-375) gene; GST; made in house; host or cells: Sf-9 insect cells
T1 sequence (Q13546 1-375): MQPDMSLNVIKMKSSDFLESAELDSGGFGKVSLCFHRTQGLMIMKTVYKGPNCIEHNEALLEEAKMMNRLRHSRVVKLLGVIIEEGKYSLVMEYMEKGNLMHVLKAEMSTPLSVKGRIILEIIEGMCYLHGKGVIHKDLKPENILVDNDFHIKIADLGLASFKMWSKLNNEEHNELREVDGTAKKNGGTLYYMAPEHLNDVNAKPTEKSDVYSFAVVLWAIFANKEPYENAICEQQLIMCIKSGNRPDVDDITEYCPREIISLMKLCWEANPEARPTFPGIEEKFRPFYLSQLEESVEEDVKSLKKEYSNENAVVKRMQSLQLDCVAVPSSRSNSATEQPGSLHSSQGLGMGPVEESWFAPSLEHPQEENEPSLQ
Method in brief: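 ADP-Glo luminescence read-out of ADP formed over 120 min at room temperature after adding 0.6 mM ATP solution (stock concentration). Compound and Sf-9-expressed, GST-purified RIPK1 (1-375) were first incubated together for 20 min in HEPES pH 7.5 buffer with MgCl2, Tween-20 and DTT.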

“(3S)-7-chloro-3-(3-chloro-1-oxo- 2-(pyrazin-2-ylmethyl)-2,4,5,7- tetrahydro-6H-pyrazolo[3,4- c]pyridin-6-yl)-5-methyl-2,3- dihydro-1,5-benzoxazepin-4(5H)- one [Example 74]” was tested, and the “human RIPK1 enzyme inhibitory effect at 10 μM (% inhibition)” value was 97%.

same assay, conditions: read-out: human RIPK1 enzyme inhibitory effect at 10 μM (% inhibition), 10 μM test compound; well without enzyme = 100% inhibition

Going from COc1ccc(Cn2cc3c(n2)C(=O)N([C@H]2COc4ccccc4N(C)C2=O)CC3)cc1 [Example 161, (3S)-3-(2-(4-methoxybenzyl)-7-oxo-2,4,5,7-tetrahydro-6H-pyrazolo[3,4-c]pyridin-6-yl)-5-methyl-2,3-dihydro-1,5-benzoxazepin-4(5H)-one] to CN1C(=O)[C@@H](N2CCc3cn(Cc4ccc(S(C)(=O)=O)cc4)nc3C2=O)COc2ccccc21 [Example 164, (3S)-5-methyl-3-(2-(4-(methylsulfonyl)benzyl)-7-oxo-2,4,5,7-tetrahydro-6H-pyrazolo[3,4-c]pyridin-6-yl)-2,3-dihydro-1,5-benzoxazepin-4(5H)-one], the inhibition at 10 µM falls from 99% to 98%.

CN1C(=O)[C@@H](N2CCc3cn(Cc4ccc(C#N)cc4F)nc3C2=O)COc2ccccc21 [Example 162, 3-fluoro-4-((6-((3S)-5-methyl-4-oxo-2,3,4,5-tetrahydro-1,5-benzoxazepin-3-yl)-7-oxo-4,5,6,7-tetrahydro-2H-pyrazolo[3,4-c]pyridin-2-yl)methyl)benzonitrile] and CN1C(=O)[C@@H](N2CCc3cn(Cc4cc(C#N)ccc4F)nc3C2=O)COc2ccccc21 [Example 172, 4-fluoro-3-((6-((3S)-5-methyl-4-oxo-2,3,4,5-tetrahydro-1,5-benzoxazepin-3-yl)-7-oxo-4,5,6,7-tetrahydro-2H-pyrazolo[3,4-c]pyridin-2-yl)methyl)benzonitrile] are the same in inhibition at 10 µM: 99% for the first, 99% for the second.

First: CN1C(=O)[C@@H](N2CCc3cn(CC4CCS(=O)(=O)C4)nc3C2=O)COc2ccccc21 (stereo partly drawn) [Example 163, (3S)-3-(2-((1,1-dioxidotetrahydrothiophen-3-yl)methyl)-7-oxo-2,4,5,7-tetrahydro-6H-pyrazolo[3,4-c]pyridin-6-yl)-5-methyl-2,3-dihydro-1,5-benzoxazepin-4(5H)-one]
Second: CN1C(=O)[C@@H](N2CCc3cn(CC4CCOC4)nc3C2=O)COc2ccccc21 (stereo partly drawn) [Example 171, (3S)-5-methyl-3-(7-oxo-2-(tetrahydrofuran-3-ylmethyl)-2,4,5,7-tetrahydro-6H-pyrazolo[3,4-c]pyridin-6-yl)-2,3-dihydro-1,5-benzoxazepin-4(5H)-one]
The inhibition at 10 µM of the first is lower: 53% for the first, 88% for the second.

First: CN1C(=O)[C@@H](N2CCc3cn(Cc4c(Cl)cccc4C#N)nc3C2=O)COc2ccccc21 [Example 165, 3-chloro-2-((6-((3S)-5-methyl-4-oxo-2,3,4,5-tetrahydro-1,5-benzoxazepin-3-yl)-7-oxo-4,5,6,7-tetrahydro-2H-pyrazolo[3,4-c]pyridin-2-yl)methyl)benzonitrile]
Second: CN1C(=O)[C@@H](N2CCc3cn(Cc4ccc(Cl)cc4F)nc3C2=O)COc2ccccc21 [Example 168, (3S)-3-(2-(4-chloro-2-fluorobenzyl)-7-oxo-2,4,5,7-tetrahydro-6H-pyrazolo[3,4-c]pyridin-6-yl)-5-methyl-2,3-dihydro-1,5-benzoxazepin-4(5H)-one]
The inhibition at 10 µM of the first is lower: 99% for the first, 100% for the second.

First: CN1C(=O)[C@@H](N2CCc3cn(Cc4cccc(S(C)(=O)=O)c4)nc3C2=O)COc2ccccc21 [Example 166, (3S)-5-methyl-3-(2-(3-(methylsulfonyl)benzyl)-7-oxo-2,4,5,7-tetrahydro-6H-pyrazolo[3,4-c]pyridin-6-yl)-2,3-dihydro-1,5-benzoxazepin-4(5H)-one]
Second: CN1C(=O)[C@@H](N2CCc3cn(CC4(C)CCC4)nc3C2=O)COc2ccccc21 [Example 173, (3S)-5-methyl-3-(2-((1-methylcyclobutyl)methyl)-7-oxo-2,4,5,7-tetrahydro-6H-pyrazolo[3,4-c]pyridin-6-yl)-2,3-dihydro-1,5-benzoxazepin-4(5H)-one]
The inhibition at 10 µM of the first is lower: 88% for the first, 98% for the second.

First: CN1C(=O)[C@@H](N2CCc3c(nn(Cc4ccccc4)c3-c3cnn(C)c3)C2=O)COc2ccccc21 [Example 169, (3S)-3-(2-benzyl-3-(1-methyl-1H-pyrazol-4-yl)-7-oxo-2,4,5,7-tetrahydro-6H-pyrazolo[3,4-c]pyridin-6-yl)-5-methyl-2,3-dihydro-1,5-benzoxazepin-4(5H)-one]
Second: CN1C(=O)[C@@H](N2CCc3cn(CC4CCCOC4)nc3C2=O)COc2ccccc21 (stereo partly drawn) [Example 170, (3S)-5-methyl-3-(7-oxo-2-(tetrahydro-2H-pyran-3-ylmethyl)-2,4,5,7-tetrahydro-6H-pyrazolo[3,4-c]pyridin-6-yl)-2,3-dihydro-1,5-benzoxazepin-4(5H)-one]
The inhibition at 10 µM of the first is lower: 80% for the first, 97% for the second.

With CN1C(=O)[C@@H](N2CCc3c(nn(Cc4ccccc4)c3Cl)C2=O)COc2cc(C(=O)NCCOCCOCCOCCNC(=O)c3ccc4c(c3)OC[C@H](N3CCc5c(nn(Cc6ccccc6)c5Cl)C3=O)C(=O)N4C)ccc21 [Example 174, (3S)-3-(2-benzyl-3-chloro-7-oxo-2,4,5,7-tetrahydro-6H-pyrazolo[3,4-c]pyridin-6-yl)-N-(13-((3S)-3-(2-benzyl-3-chloro-7-oxo-2,4,5,7-tetrahydro-6H-pyrazolo[3,4-c]pyridin-6-yl)-5-methyl-4-oxo-2,3,4,5-tetrahydro-1,5-benzoxazepin-8-yl)-13-oxo-3,6,9-trioxa-12-azatridec-1-yl)-5-methyl-4-oxo-2,3,4,5-tetrahydro-1,5-benzoxazepine-8-carboxamide] the inhibition at 10 µM was 101%.
